Here are results for two compounds from patent publication US11795615B2 (priority 2015, dated 2023).

Data set [1] is described as follows: Side by side bleaching of Kraft pulp, hand sheet Kappa number, pH and ORP. To be noted: for Kappa No.: unbleached 30.
The nature of data set [2]: Thermal activation in distilled water at pH 8.5 and 50° C. The format is physicochemical. To be noted: pH 8.5, 50° C.
Data set [3] has as its system microbial control in water. In words: Microbial control in water at slightly alkaline pH. It counts as cell-based. An excerpt: In some embodiments, microbial control in water at slightly alkaline pH was compared between peracetate oxidant, […] bleach, peracetic acid and […] dioxide. Alkaline pH is encountered in a variety of applications where microbial control and sanitization is needed, including pulp and paper processing, cooling towers, water treatment and chill tanks in poultry processing. […].

For data set [4] the following is noted: gas; cited from earlier work.
For data set [5] the following is noted: 20° C.; cited from earlier work.
The mark [6] stands for this setting: 1.13 g/L PAA equiv., initial pH 8.2, 30 min.

As to `CC(=O)OO` [PAA, peracetic acid], the “Kappa No.” value in data set [1] (4.0 g/L PAA equiv., initial pH 7.0, 30 min) stood at 31; in data set [1] (4.0 g/L PAA equiv., initial pH 8.9, 30 min), 29. Also, the “Kappa unit reduction (bleaching efficiency)” value in data set [1] (hand sheet tests, initial Kappa number 30) is listed as “only up to one Kappa unit reduction”. Further, the “time of stable peracetic acid and hydrogen peroxide concentrations” value in data set [2] is “about 90 minutes”. Also, the ORP result in data set [2] (peracetate value within 40 minutes) was “around 280 mV vs SHE”. Moreover, in data set [3], the “performance as antimicrobial disinfectant” value is “lowest performance”.

Regarding chlorine dioxide [ClO2], in data set [1] (setting [6]), the “Final ORP” value is 896 mV vs SHE and the “Kappa No.” value was 22. Further, the “performance as antimicrobial disinfectant” value in data set [3] is reported as “performed well”. In addition, the vapor pressure entry in data set [4] is “greater than 1 atm”. Besides, in data set [5], the “solubility limit in water” value was 0.8 % wt/vol.
